In US8871789B2, “Method of preventing or treating viral infection” (The United States of America, as represented by the …, priority 2010, dated 2014):

tested on: HSV-1; test: not given; type: cell-based, Balb/c mice; conditions: 2 mM DMOG, 2 mM TCP or ACV, 48 hours; FIG. 11
Experimental: FIG. 18 is a dot plot showing latently infected ganglia that were explanted in the presence of DMSO, ACV (100 mM), or ML324 (50 mM) for 48 hrs. Viral yields were determined from one half of each ganglia at 48 hrs (DMSO, ACV, ML324) and from the other half of each ganglia after drug reversal for an additional 72 hrs (ACV-R, ML324-R) [Wilcoxon matched pairs signed rank test, ACV vs ACV-R n=8, ML324 vs ML324-R n=10]. Data are means±SEM.
FIG. 19 is a dot plot showing viral yields from HSV-1 latently infected trigeminal ganglia that were explanted in the presence of DMSO, or 2 mM DMOG or 50 mM ML324 for 48 hours (DMSO versus DMOG: P=0.0015, Wilcoxon matched-pairs signed rank test; n=12; DMSO versus ML324: P<0.0001; n=20). Data are means±SEM.
Viral yields decrease from HSV-1 latently infected ganglia explanted in the presence of LSD1 or JMJD2 inhibitors (FIG. 11). Balb/c mice were infected with 5×10^6 PFU HSV-1 (strain F) per eye after corneal scarification. Latently infected mice were sacrificed 45 days post clearance of the primary infection and trigeminal ganglia were rapidly explanted into culture in the presence of 2 mM DMOG, 2 mM TCP, or control (DMSO or ACV, acyclovir) for 48 hours. Post explant incubation, the ganglia were homogenized and briefly sonicated. The reactivated viral yield of each ganglia was determined by titering the clarified supernatant on Vero cells. Statistical comparisons were made using Wilcoxon signed rank test (paired ganglia) with a statistical significance of <0.05. Each data point was the result of a single ganglia divided and treated in the presence and absence of DMSO and DMOG or DMSO and TCP. Therefore, a Wilcoxon signed rank test was used to assess differences between each treated and untreated sample. The significant difference between DMSO control and DMOG was p=0.0018. This test used an exact p-value for small sample sizes with an a level of 0.05. n=20. Analyses were made using Prism (V5.0a) and are expressed as the mean+/−s.e.m.

Row | SMILES | viral yield from explanted latently infected ganglia
1 | N[C@@H]1C[C@H]1c1ccccc1 (racemic) [TCP, tranylcypromine] | decreases
2 | Nc1nc2c(ncn2COCCO)c(=O)[nH]1 [ACV, acyclovir, reference compound] | No viral yields

tested on: HSV-1; test: not given; type: cell-based, mouse; conditions: 100 mM ACV or 50 mM ML324, 48 hours

Row | SMILES | isolated UL29+ neurons relative to DMSO
3 | Nc1nc2c(ncn2COCCO)c(=O)[nH]1 [ACV, acyclovir, reference compound] | reduced number

tested on: HSV-1; test: Plaque assay of Vero cells infected with HSV-1; type: cell-based; set-up: # Plaques: dose or concentration left out as unconfirmed; conditions: MOI .001; 12 hours infection, then ACV or ML324 for 48 hours
Experimental: ML324 was ˜75-fold more efficient than DMOG. Additionally, ML324 (i) reduced viral yields in a dose-dependent manner (˜5 logs at 50 mM, FIG. 14); (ii) blocked viral IE gene transcription and reduced viral yields when cells were infected at high multiplicity of infection (MOI; FIGS. 15 and 16); and (iii) suppressed IE gene transcription, even when added at times after infection (>50% reduction at 2 hours after infection; FIG. 17). As further evidence for the efficacy of ML324, cells were infected with HSV to allow for a productive cycle of infection, followed by treatment with DMSO, ACV, or ML324.

Row | SMILES | # Plaques
4 | Nc1nc2c(ncn2COCCO)c(=O)[nH]1 [ACV, acyclovir, reference compound] | 1

same assay, conditions: MOI .01; 12 hours infection, then ACV or ML324 for 48 hours

Row | SMILES | # Plaques
5 | Nc1nc2c(ncn2COCCO)c(=O)[nH]1 [ACV, acyclovir, reference compound] | 8

biological target: T1, JMJD2E (Homo sapiens, UniProt B2RXH2); test: AlphaLISA assay, JMJD2E histone demethylase inhibition; type: biochemical; conditions: not given
T1 sequence (B2RXH2 1-506): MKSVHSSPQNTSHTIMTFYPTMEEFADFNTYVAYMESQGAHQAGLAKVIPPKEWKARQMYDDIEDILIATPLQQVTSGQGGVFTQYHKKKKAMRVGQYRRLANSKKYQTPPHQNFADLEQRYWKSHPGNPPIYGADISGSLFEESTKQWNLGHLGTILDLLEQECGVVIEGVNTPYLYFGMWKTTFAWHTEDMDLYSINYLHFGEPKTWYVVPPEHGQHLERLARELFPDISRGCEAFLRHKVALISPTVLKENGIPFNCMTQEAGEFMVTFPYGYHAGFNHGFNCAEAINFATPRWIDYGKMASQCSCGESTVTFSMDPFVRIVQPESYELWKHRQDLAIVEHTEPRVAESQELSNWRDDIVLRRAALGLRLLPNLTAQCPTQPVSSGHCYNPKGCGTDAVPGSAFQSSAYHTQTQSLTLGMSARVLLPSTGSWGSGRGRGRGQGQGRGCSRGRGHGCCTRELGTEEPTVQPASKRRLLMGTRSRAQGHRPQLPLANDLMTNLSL

Row | SMILES | IC50 [nM]
6 | CN1CCN(c2cnc3c(O)ccc(C(=O)O)c3c2)CC1 [Compound 10] | 2250
7 | O=C(O)c1ccc(O)c2ncc(N3CCOCC3)cc12 [Compound 11] | 1740
8 | O=C(O)c1ccc(O)c2ncc(C3CCNCC3)cc12 [Compound 12] | 1330
9 | NC1CCN(c2cnc3c(O)ccc(C(=O)O)c3c2)CC1 [Compound 13] | 1570
10 | N[C@@H]1CCN(c2cnc3c(O)ccc(C(=O)O)c3c2)C1 [Compound 16] | 1170
11 | O=C(O)c1ccc(O)c2ncc(N3CC4CNCC4C3)cc12 (stereo not shown) [Compound 17] | 1470
12 | NC(=O)c1cccc(-c2cnc3c(O)ccc(C(=O)O)c3c2)c1 [Compound 28] | 4900

Other lines, results leading:

Row | IC50 [nM] | SMILES
13 | 2240 | O=C(O)c1ccc(O)c2ncc(N3CCCC3)cc12 [Compound 14]
14 | 1760 | O=C(O)c1ccc(O)c2ncc(NC3CCNC3)cc12 (stereo not shown) [Compound 15]

same assay, conditions: Table 2; JMJD2E; AlphaLISA, in triplicate; read-out: IC50

Row | SMILES | IC50 [nM]
15 | O=C(O)c1ccnc2c(O)cccc12 [Compound 2] | 3070
16 | O=C(c1ccc(-c2cc(O)c3ncccc3c2)cc1)N1CCNCC1 [Compound 5] | 1620
17 | CN1CCN(C(=O)c2cccc(-c3cc(O)c4ncccc4c3)c2)CC1 [Compound 6] | 4270
18 | CN(C)CCCN1CCCN(C(=O)c2cccc(-c3cc(O)c4ncccc4c3)c2)C1 [Compound 9] | 1520

Further lines, results first:

Row | IC50 [nM] | SMILES
19 | 12000 | CN(C)CCCNC(=O)c1ccc(-c2cnc3c(O)cccc3c2)cc1 [Compound 3]
20 | 1240 | O=C(NCCCN1CCNCC1)c1cccc(-c2cc(O)c3ncccc3c2)c1 [Compound 7]
21 | 990 | CN(C)CC1CCN(C2CCN(C(=O)c3cccc(-c4cc(O)c5ncccc5c4)c3)CC2)CC1 [Compound 8]

same assay, conditions: Table 3; JMJD2E; AlphaLISA, in triplicate; read-out: IC50

Row | SMILES | IC50 [nM]
22 | O=C(O)c1ccc(O)c2ncc(N3CCN(Cc4ccccc4)CC3)cc12 [Compound 18] | 4980
23 | O=C(O)c1ccc(O)c2ncc(-c3ccc(N4CCOCC4)cc3)cc12 [Compound 19] | 4180
24 | O=C(O)c1ccc(O)c2ncc(NCC3CCCN(CCc4ccccc4)C3)cc12 (stereo not shown) [Compound 21] | 2100
25 | O=C(O)c1ccc(O)c2ncc(N3CCCCC3CCc3ccccn3)cc12 (stereo not shown) [Compound 22] | 4660
26 | CN(C)CCCNC(=O)c1ccc(-c2cnc3c(O)ccc(C(=O)O)c3c2)cc1 [Compound 25] | 1410
27 | O=C(O)c1ccc(O)c2ncc(N3CCCN(C4CCCC4)CC3)cc12 [Compound 26] | 2080

Now from value to compound:

Row | IC50 [nM] | SMILES
28 | 5110 | O=C(O)c1ccc(O)c2ncc(-c3cccc(N4CCOCC4)c3)cc12 [Compound 20]
29 | 3610 | O=C(O)c1ccc(O)c2ncc(-c3ccc(C(=O)N4CCNCC4)cc3)cc12 [Compound 23]
30 | 4630 | CN1CCN(C(=O)c2ccc(-c3cnc4c(O)ccc(C(=O)O)c4c3)cc2)CC1 [Compound 24]
31 | 1710 | O=C(O)c1ccc(O)c2ncc(N3CCCN(CCCc4ccncc4)CC3)cc12 [Compound 27]
